In data set [1] the target is T1, Peroxisome proliferator-activated receptor alpha (Homo sapiens, UniProt Q07869).
T1 sequence (Q07869 whole entry): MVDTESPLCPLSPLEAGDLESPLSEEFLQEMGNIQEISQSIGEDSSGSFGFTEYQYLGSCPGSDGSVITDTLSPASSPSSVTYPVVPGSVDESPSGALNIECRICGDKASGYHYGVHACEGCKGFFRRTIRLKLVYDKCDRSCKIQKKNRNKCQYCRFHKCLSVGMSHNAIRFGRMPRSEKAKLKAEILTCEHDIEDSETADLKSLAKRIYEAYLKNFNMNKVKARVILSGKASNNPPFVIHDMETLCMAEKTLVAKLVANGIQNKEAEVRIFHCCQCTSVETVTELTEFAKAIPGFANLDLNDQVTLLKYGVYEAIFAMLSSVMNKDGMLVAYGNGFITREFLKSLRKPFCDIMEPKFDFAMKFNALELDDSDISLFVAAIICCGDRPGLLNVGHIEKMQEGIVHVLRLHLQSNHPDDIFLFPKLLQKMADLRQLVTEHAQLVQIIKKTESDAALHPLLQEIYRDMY
The conditions noted are these: for pEC50: read-out: EC50.

Data set [2] deals with T1, Peroxisome proliferator-activated receptor alpha.
For data set [3], the species on record is Rattus norvegicus. The class given is functional, Plasma. The conditions noted are these: at 10 mg/kg/day.
Data set [4] is filed under the species Rattus norvegicus. The class given is functional, Plasma. The conditions noted are these: at 30 mg/kg/day.
For data set [5], the species on record is Rattus norvegicus. Format: functional, Plasma. Conditions: at 10 mg/kg/day. The source holds these as a separate data set.
For data set [6], the species on record is Rattus norvegicus. The class given is functional, Plasma. The conditions noted are these: at 30 mg/kg/day. The source holds these as a separate data set.
For data set [7], the species on record is Rattus norvegicus. The class given is functional, Plasma. The conditions noted are these: at 10 mg/kg/day. This is another data set of the same source.
The species entered for data set [8] is Rattus norvegicus. Format: functional, Plasma. The conditions noted are these: at 30 mg/kg/day. The source holds these as a separate data set.
For data set [9], the species on record is Mus musculus. The class given is functional, Plasma. The conditions noted are these: at 10 mg/kg/day.
The species named for data set [10] is Mus musculus. Format: functional, Plasma. The conditions noted are these: at 30 mg/kg/day.
Data set [11] is filed under the species Mus musculus. Format: functional, Plasma. The conditions noted are these: at 10 mg/kg/day. The source holds these as a separate data set.
The species entered for data set [12] is Mus musculus. The class given is functional, Plasma. The conditions noted are these: at 30 mg/kg/day. The source holds these as a separate data set.
The species entered for data set [13] is Mus musculus. Conditions: Plasma.
Data set [14] is described as follows: in vivo. The conditions noted are these: male, Sprague-Dawley, rat, po, 10 mg/kg.
Data set [15] can be described thus: in vivo. Conditions: male, Sprague-Dawley, rat, iv.
Data set [16] is filed under the species Rattus norvegicus. Format: functional, Plasma. Conditions: at 30 mg/kg/day. This is another data set of the same source.
The species named for data set [17] is Rattus norvegicus. Format: functional, Plasma. Conditions: at 3 mg/kg/day.
The species entered for data set [18] is Rattus norvegicus. Format: functional, Plasma. The conditions noted are these: at 30 mg/kg/day. This is another data set of the same source.
Data set [19] is filed under the species Rattus norvegicus. Format: functional, Plasma. The conditions noted are these: at 3 mg/kg/day. This is another data set of the same source.
The species entered for data set [20] is Mus musculus. The class given is functional, Plasma. Conditions: at 3 mg/kg/day.
The species entered for data set [21] is Mus musculus. Format: functional, Plasma. The conditions noted are these: at 30 mg/kg/day. The source holds these as a separate data set.
The species named for data set [22] is Mus musculus. The class given is functional, Plasma. The conditions noted are these: at 3 mg/kg/day. The source holds these as a separate data set.
The species entered for data set [23] is Mus musculus. The class given is functional, Plasma. Conditions: at 30 mg/kg/day. The source holds these as a separate data set.
For data set [24], the species on record is Rattus norvegicus. Format: functional, Plasma. The conditions noted are these: at 3 mg/kg/day. The source holds these as a separate data set.
The target in data set [25] is T2, Peroxisome proliferator-activated receptor delta (Homo sapiens, UniProt Q03181).
T2 sequence (Q03181 whole entry): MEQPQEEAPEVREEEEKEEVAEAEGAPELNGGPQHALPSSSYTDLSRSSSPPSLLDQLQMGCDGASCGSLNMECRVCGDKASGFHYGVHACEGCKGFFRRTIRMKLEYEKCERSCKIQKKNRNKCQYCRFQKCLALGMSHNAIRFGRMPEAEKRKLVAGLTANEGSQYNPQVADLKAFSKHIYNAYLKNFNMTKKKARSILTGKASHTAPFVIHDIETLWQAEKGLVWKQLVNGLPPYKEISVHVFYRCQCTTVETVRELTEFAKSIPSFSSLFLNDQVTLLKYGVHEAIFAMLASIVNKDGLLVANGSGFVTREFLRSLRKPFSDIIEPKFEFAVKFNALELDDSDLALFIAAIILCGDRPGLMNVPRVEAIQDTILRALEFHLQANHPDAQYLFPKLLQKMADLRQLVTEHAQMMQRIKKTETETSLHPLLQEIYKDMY

Data set [26] concerns the target T2, Peroxisome proliferator-activated receptor delta. This is another data set of the same source.
The species named for data set [27] is Rattus norvegicus. The conditions noted are these: in vivo, po, 10 mg/kg.
A short description of data set [28]: in vivo. The conditions noted are these: male, Sprague-Dawley, rat, iv. The source holds these as a separate data set.
Data set [29] is filed under the species Rattus norvegicus. Format: functional, Plasma. The conditions noted are these: at 100 mg/kg/day.
For data set [30], the species on record is Rattus norvegicus. The class given is functional, Plasma. Conditions: at 100 mg/kg/day. This is another data set of the same source.
For data set [31], the species on record is Rattus norvegicus. Format: functional, Plasma. The conditions noted are these: at 100 mg/kg/day. The source holds these as a separate data set.
Data set [32] is filed under the species Mus musculus. The class given is functional, Plasma. The conditions noted are these: at 100 mg/kg/day.
The species named for data set [33] is Mus musculus. The class given is functional, Plasma. Conditions: at 100 mg/kg/day. The source holds these as a separate data set.

pEC50, pIC50: −log10 of the molar value.

In the case of `CCCc1c(OCCCSc2ccc(CC(=O)O)cc2Cl)ccc2c(-c3ccccc3)coc12` [L-796449], the pEC50 (as a rule, −log10 of the EC50, conventionally taken in molar units) in [1] is 7.74. For the same compound, the pIC50 (in general, the IC50 on a negative log10 scale, so that one unit is a factor of ten) in [2] is 7.27. The Dec in data set [3] turned out to be 13%; in data set [4] it was 66%; in [5] it was 67%; in [6] it was 88%; in [9], 72%; in data set [10] it was 86%. The Corr was 27% in data set [7], 56% in data set [8], 77% in data set [11] and 94% in [12]. Moreover, the CL (mL.min-1.kg-1) in [13] came out at 3.3. Besides, the bioavailability (as a rule, the share of a dose that reaches the circulation, judged against a reference dose that is usually intravenous) in [14] is 84%. In addition, in data set [15], the half-life (as a rule, the time needed for the level to fall by half in the phase considered) is 2.1 h.

As to `CCCc1c(OCCCSc2ccc(CC(=O)O)cc2Cl)ccc2c(C(F)(F)F)noc12`, the pEC50 in [1] is 6.90; in data set [26], 8.30. For the same compound, the pIC50 in [2] was 6.51; in data set [25], 8.00. In addition, the Dec in data set [3] is on record as -53%; in [16], -65%; in data set [17] it was -34%; in [5], 52%; in [18], 74%; in [9] it was 46%. In addition, the Dec is recorded as 81% in data set [21], 46% in [22] and 45% in data set [24]. Besides, the Corr came out at 83% in data set [7]; 95% in data set [8]; 18% in [19]; 30% in data set [20]; 71% in [11]; 96% in [23]. This compound yielded a nAUC in data set [27] of 2520 ng·h/mL. For the same compound, in data set [28], the clearance (as a rule, the rate of elimination divided by the concentration) amounted to 2.6 mL/min/kg. Further, the bioavailability in data set [14] turned out to be 100%. The compound further had a half-life in data set [15] of 4.7 h.

For `CCCc1c(OCCCSc2ccc(CC(=O)O)cc2Cl)ccc(/C(CC)=N/O)c1O`, the pEC50 in data set [1] was 7.13; in data set [26] it was 8.05. Moreover, the results for the pIC50 in data set [2] and in data set [25] were 7.00 and 8.00, respectively. Further, the Dec was determined as 65% in data set [4], 54% in data set [29], 15% in data set [6] and 80% in data set [30]. For the same compound, the values for the Corr in [31] and in [8] were 89% and 44%, respectively. Moreover, the clearance in [28] came out at 5.7 mL/min/kg. Moreover, in data set [14], the bioavailability was 33%. Also, the half-life in data set [15] is 2.8 h.

With `CCCc1c(OCCCSc2ccc(CC(=O)O)cc2Cl)ccc(C(=O)CC)c1O`, the figures for the pEC50 in data set [1] and in data set [26] were 6.59 and 8.00, respectively. The figures for the negative-log IC50 (pIC50) in [2] and in [25] were 6.22 and 7.70, respectively.

For the compound `CCCc1c(OCCCSc2ccc(CC(=O)O)cc2Cl)ccc(C(C)=O)c1O`, the pEC50 in data set [1] is 5.80; in [26], 7.10. For the same compound, the pIC50 in data set [2] is 5.13; in [25] it was 7.70.

Consider `CN(CCOc1ccc(CC2SC(=O)NC2=O)cc1)c1ccccn1` (stereo not given) [ROSIGLITAZONE], for which the EC50 entry in data set [1] is given as “Not Active”. Further, the Dec was determined as 78% in [3]; 94% in data set [4]; 54% in data set [5]; 86% in data set [6]; 75% in data set [9]. In addition, the Corr stood at 99% in data set [7], 109% in [8] and 65% in data set [11].

Regarding `CCCc1c(OCCCSc2ccc(CC(=O)O)cc2Cl)ccc2c(CC)coc12`, the pEC50 in [1] is 5.89. This compound also showed a pIC50 in [2] of 5.76. For the same compound, in data set [10], the Dec is on record as 60%. In [12], this compound displayed a Corr of 74%.

Regarding `CCCc1c(OCCCSc2ccc(CC(=O)O)cc2Cl)ccc2c(CC)noc12` [L-165461], the pEC50 in data set [1] was 6.61. The compound further had a pIC50 in data set [2] of 6.24. In addition, the Dec is 42% in [4]; 52% in data set [29]; -14% in data set [6]; 70% in data set [30]; 67% in data set [32]. The Corr was determined as 66% in [31], 29% in data set [8] and 33% in data set [33]. The clearance in [28] is 17.6 mL/min/kg. The compound further yielded a bioavailability in [14] of 50%. This compound also gave a half-life in data set [15] of 1 h.

The record behind these values is ChEMBL document CHEMBL1136679, “Phenylacetic acid derivatives as hPPAR agonists” (Bioorg Med Chem Lett, 2003).
